Measured values published in patent publication US11590240B2, “Nano-fibular nanoparticle polymer-drug conjugate for sustained dermal delivery of retinoids” (Massachusetts Institute of Technology, priority 2015, dated 2023).

Tests used:
[1] = system: Balb/CJ mouse; assay: Irritation after topical application to mouse dermis (digital imaging, H&E histology); assay type: in vivo; settings: for gross appearance of treated skin: 10 μM ATRA dosing equivalent, topical
Protocol: Mice used for the assessment of irritation were given each of the two different treatments on 1 cm^2 regions of their dorsum, these included PATRA, ATRA, PVA, and PBS. A total of twelve mice were used in this assessment. 50 μL of 10 μM ATRA solution was placed on two 1 cm^2 shaved areas on the flanks of a Balb/CJ mouse on either side of midline. PATRA (0.092 mg mL^−1) and PVA (0.089 mg mL^−1) concentrations were controlled for 10 μM ATRA dosing. These solutions were rubbed into the skin using a cotton-tipped applicator for 30 seconds.
Tissues were fixed in zinc fixative without formalin for 48 hours. The excised tissues were cut on center and then embedded cut-face down in paraffin. Sections were taken at the wound center and at one further level of 500 μm reaching a total of 1 mm sampling length through the application site. At each level an H&E slide was stained. Unstained slides were also taken for potential IHC analysis of the tissue. All sections were 5 μm thick. Image analysis was performed using Image J.
To investigate the relative irritative nature of PATRA in comparison to ATRA, each was tested on the flanks of mice. Irritation was evaluated by digital imaging of the application site of ATRA, PATRA, or control solutions for up to five days post-application as well as by histological evaluation of inflammation after 5 days. In brief, 50 μL of 10 μM ATRA solution was placed on a 1 cm^2 shaved area on the flank of a Balb/CJ mouse. PATRA (0.092 mg mL^−1) and PVA (0.089 mg mL^−1) concentrations were controlled for 10 μM ATRA dosing. This solution is rubbed into the skin using a cotton-tipped applicator for 30 seconds. Each mouse received one of the four different material solutions applied in two locations. Inflammation and dermal changes subsequent to ATRA application were evaluated by both by digital imaging and by H&E histology.

[2] = Uptake, retention and penetration of ATRA in pig skin, Franz diffusion cell; assay type: in vitro ADME
Protocol: Uptake, retention, and penetration of ATRA in pig skin were investigated using a Franz diffusion cell as described and known in the art. Skin was harvested from the flanks of adult female Yorkshire pigs 1 hour after sacrifice with subcutaneous fat removed. Skin was sectioned and frozen at −80° C. for up to six months prior to use. Skin was prepared for diffusion experiments by thawing in PBS for one hour after which time all hair on the skin was shaven off. Test samples of skin were cut to 30 mm×30 mm square samples and placed into the diffusion cell such that the top of the dermis faced a 3 mL testing retention reservoir and the underside faced a 15 mL penetration reservoir. […]
Samples were placed into the retention reservoir at a concentration of 0.1 mg/mL and followed for up to 12 hours. ATRA concentration was evaluated in both the retention and penetration reservoirs every four hours during this period via UV absorbance measurements. […] For both groups, the penetration reservoir was filled with a hydroalcoholic solution so that the ATRA that could penetrate the skin would be soluble for UV absorbance measurement. […]
Samples to be tested were placed into the retention reservoir at a concentration of 0.1 mg/mL and followed for up to 12 hours. ATRA concentration was evaluated in both the retention and penetration reservoirs every four hours during this period via UV absorbance measurements. […]

[3] = Solubility of free ATRA and PATRA in different solutions (UV absorbance of supernatant); assay type: physicochemical
Protocol: Solubility was evaluated by bringing 2 mg/ml of ATRA either free or conjugated to PVA into equilibrium at room temperature for 1 hour, followed by centrifugation of the solution at 1,500 rpm for five minutes to remove undissolved precipitate. The supernatant from this process was then used for the testing of ATRA concentration via UV absorbance as previously described.

fraction of ATRA accumulated within the treated skin ([2]; 12 hours of exposure, 0.1 mg/mL in retention reservoir, room temperature): 1.9±0.9%
solubility, in words ([3]; PBS 1× (pH7.4)): insoluble
solubility, in words ([3]; deionized water): insoluble
SMILES: CC1=C(/C=C/C(C)=C/C=C/C(C)=C/C(=O)O)C(C)(C)CCC1 [ATRA, All-trans retinoic acid]
stratum corneum (SC) and epidermal thickness, histology ([1]; after 5 days): Significantly increased
gross appearance of treated skin ([1]; five days post-application): still has a rash-like quality with a thick and calloused appearance
gross appearance of treated skin ([1]; three days post-application): begins to appear inflamed after three days
ATRA in the receiving (penetration) reservoir, free ATRA versus PATRA ([2]; every four hours up to 12 hours): much higher level of ATRA accumulation at every time point tested
